How the values were obtained:
[1] = tested on: MCP-1 release from THP-1 cells after oxLDL stimulation; test: oxLDL-induced MCP-1 release in THP-1 macrophage culture (ELISA); assay type: cell-based, human; settings: 0.01 μM pretreatment, oxLDL alone 2.23±0.34
Experimental: THP-1 cells were grown in the RPMI-1640 medium containing 10% fetal bovine serum at 37° C. in 5% CO2. The cells were differentiated to macrophages after treatment of the culture with 100 nM PMA for 24 hours. The cell suspension (5×10^5) was added in 0.5 mL into each well of the tissue culture plates. […] LPS was dissolved in sterile water and stored at −70° C. in aliquots. LDL was isolated from human endotoxin-free heparin plasma and was oxidized using CuSO4. In brief, LDL (1 mL, 1 mg/mL) was dialyzed in 500 mL phosphate-buffered saline (PBS, pH 7.4) overnight. Copper sulfate was added to a final concentration of 5 μM, and the LDL was allowed to oxidize at room temperature for 24 hours.
The supernatants were harvested and the TNF-α, IL-6, and MCP-1 levels were determined by ELISA. Superoxide production in the THP-1 cell culture was measured by lucigenin-enhanced chemiluminescence as described previously (Khadour F H, Panas D, Ferdinandy P, et al. Am J Physiol Heart Circ Physiol, 28:H1108-15 2002). LPS-treated THP-1 cells were treated with PBS containing 1.25 mM lucigenin, and counts were obtained for a 10-minute period in a luminometer (Berthold Technologies, Germany) as relative light units (RLU) emitted. Background counts determined in cell-free preparations were subtracted. […]

[2] = tested on: plasma TNF-α; test: Plasma TNF-α in LPS-treated FVB mice (ELISA); assay type: in vivo; settings: 6 h, LPS only 576.1±43.6
Experimental: (§1) All mice then received 20 mg/kg LPS by intraperitoneal injection. Blood samples were obtained at 6 hours after LPS injection from a catheter placed in the left carotid artery. Blood samples were centrifuged, and the plasma TNF-α levels were measured by ELISA. Lungs were harvested from the animals 6 hours after LPS injection in each group as described above. The tissues were fixed in 4% paraformaldehyde and embedded in paraffin for histopathological examination. The presence of inflammatory cells in lungs was determined by immunofluorescence. The sections were incubated with rat monoclonal antibody against mouse CD45, a leukocyte common antigen (1:50 dilution, Pharmingen). After washing, fluorescein isothiocyanate-conjugated sheep […] immunoglobulin (Amersham Pharmacia Biotech) was applied as a secondary antibody. […] The total CD45-positive cell number was counted in five randomly selected sections under high power field magnification (400×) for each mouse. Oxidative fluorescent microtopography with the oxidative fluorescent dye dihydroethidium (DHE) was used to evaluate the in situ production of superoxide in aorta. Aortas were harvested from the animals at 6 hours after LPS injection in each group as described above. Unfixed frozen ring segments were cut into 30-μm-thick sections and placed on a glass slide. DHE (10 μM) was topically applied to each tissue section and a cover slip was applied. Slides were incubated in a light-protected humidified chamber at 37° C. for 30 minutes. Fluorescence was detected with a laser scanning confocal microscope (Leica Microsystems, Germany) with excitation at 488-nm and detection at 585-nm using a long-pass filter.

[3] = tested on: CD45-positive cells in lungs; test: Pulmonary inflammatory cell (CD45-positive) infiltration in LPS-treated mice, immunofluorescence; assay type: in vivo; settings: LPS only 103±16
Experimental: as §1

[4] = tested on: superoxide production in aorta; test: Superoxide in aorta of LPS-treated mice, DHE oxidative fluorescent microtopography; assay type: in vivo
Experimental: as §1, with “Aortas were harvested from the animals at 6 hours after LPS injection in each group as described above. Unfixed frozen ring segments were cut into 30-μm-thick sections and placed on a glass slide. DHE (10 μM) was topically applied to each tissue section and a cover slip was applied. Slides were incubated in a light-protected humidified chamber at 37° C. for 30 minutes.” left out

[5] = tested on: macrophage NADPH oxidase; test: Macrophage NADPH oxidase activity after LPS, lucigenin chemiluminescence; assay type: cell-based, human; settings: LPS alone 3,310,000±1,670,000
Experimental: THP-1 cell culture was pretreated for 1 hour with the indicated concentrations of DM before stimulation with 100 ng/mL LPS. Lysis buffer was added to the cells and centrifuged. The supernatant was discarded and the pellet was resuspended. NADPH oxidase activity was measured by mixing 30 μg protein, 5 μM lucigenin, and 100 μM NADPH. Chemiluminescence was determined every 10 seconds for 15 minutes. Data are presented as mean±SD (n=8-15). ***P<0.001 compared with the LPS-treated cells.

[6] = tested on: superoxide production in PMN; test: Superoxide production in PMN of apoE-deficient mice, lucigenin chemiluminescence; assay type: in vivo; settings: controls 519,000±115,000
Experimental: ApoE-deficient mice were treated daily with DM 5 mg/kg/day (n=9), 10 mg/kg/day (n=9), 20 mg/kg/day (n=9) or 40 mg/kg/day (n=11) for 10 weeks. Production of superoxide in PMN (1×10^6 cells/mL PBS) (A) was measured by lucigenin-enhanced chemiluminescence. The results are expressed as mean±SD. (P<0.05, control versus 10 mg/kg/day; P<0.001, control versus 20 mg/kg/day and 40 mg/kg/day). Production of superoxide in the thoracic aorta (B) was also measured by lucigenin-enhanced chemiluminescence. The results are expressed as mean±SD. (P<0.05, control versus 10 mg/kg/day and 40 mg/kg/day; P<0.01, control versus 20 mg/kg/day).
(§2) Having established the DM inhibitory effect on macrophage activation and NADPH oxidase, we next examined the functional consequences of which in vivo. […] Sections of left carotid arteries from the mice were stained with DHE and then imaged with a laser scanning confocal microscope.

[7] = tested on: superoxide production in left carotid arteries; test: Superoxide in left common carotid artery of apoE-deficient mice, DHE staining; assay type: in vivo
Experimental: Representative photomicrographs of the […] sections in apoE-deficient mice were treated daily with water only (A) or DM 5 mg/kg/day (B), 10 mg/kg/day (C), 20 mg/kg/day (D) or 40 mg/kg/day (E) for 10 weeks. […] The results are representative of 4 independent experiments with 6-8 independently analyzed mice/group. (bar=50 μm)
as §2

[8] = tested on: NADPH oxidase-deficient mice; settings: Zhang et al. 2004; cited from earlier work

C=CCN1CC[C@]23c4c5ccc(O)c4O[C@H]2C(=O)CC[C@@]3(O)[C@H]1C5 [Naloxone, 17-allyl-4,5α-epoxy-3,14-dihydroxymorphinan-6-one]
MCP-1 in medium [1]: 0.95 ± 0.28 ng/mL
plasma TNF-α level ([2]; 10 mg/kg i.p. before 20 mg/kg LPS): 452.9 ± 55.0 pg/mL
plasma TNF-α level ([2]; 20 mg/kg i.p. before 20 mg/kg LPS): 251.9 ± 59.6 pg/mL
plasma TNF-α level ([2]; 25 mg/kg i.p. before 20 mg/kg LPS): 288.0 ± 33.9 pg/mL
infiltration of inflammatory cells in the lungs (CD45-positive cell number) ([3]; 10 mg/kg i.p. before LPS): 74±10
infiltration of inflammatory cells in the lungs (CD45-positive cell number) ([3]; 20 mg/kg i.p. before LPS): 58±15
infiltration of inflammatory cells in the lungs (CD45-positive cell number) ([3]; 25 mg/kg i.p. before LPS): 62±12
DHE staining of aorta (superoxide), FIG. 5 ([4]; 20 mg/kg naloxone pretreatment 1 hour before LPS): staining was much more reduced
DHE fluorescence intensity in aortic sections (superoxide) ([4]; 10, 20, and 25 mg/kg pretreatment, LPS-treated mice): significantly reduced the increase of fluorescence intensity

COc1ccc2c(c1)[C@]13CCCC[C@@H]1[C@H](C2)N(C)CC3 [DM, (+)-3-methoxy-17-methyl-9α,13α,14α-morphinan]
NADPH oxidase activity ([5]; DM 0.01 μM pretreatment): 1,360,000±860,000 RLU/15 min/mL
NADPH oxidase activity ([5]; DM 0.1 μM pretreatment): 1,280,000±540,000 RLU/15 min/mL
NADPH oxidase activity ([5]; DM 1 μM pretreatment): 1,400,000±730,000 RLU/15 min/mL
PMN production of superoxide ([6]; 5 mg/kg/day 10 weeks, P=NS): 460,000±138,000 RLU/15 min
PMN production of superoxide ([6]; 10 mg/kg/day 10 weeks): 390,000±63,000 RLU/15 min
PMN production of superoxide ([6]; 20 mg/kg/day 10 weeks): 328,000±82,000 RLU/15 min
PMN production of superoxide ([6]; 40 mg/kg/day 10 weeks): 328,000±82,000 RLU/15 min
DHE staining (superoxide), FIG. 14 ([7]; DM 5, 10, 20 or 40 mg/kg/day for 10 weeks vs water only): staining was much more reduced
DHE fluorescence intensity in sections of left carotid arteries (superoxide) ([7]; DM 10, 20, and 40 mg/kg/day for 10 weeks): significantly reduced the increase of fluorescence intensity
anti-inflammatory effect [8]: anti-inflammatory effect was not observed

From patent publication US7820689B2, “Methods and compositions for preventing or treating cardiovascular disease” (priority 2006, dated 2010)
